Measured values taken from paper PMC8783508, “A novel D-amino acid peptide with therapeutic potential (ISAD1) inhibits aggregation of neurotoxic disease-relevant mutant Tau and prevents Tau toxicity in vitro” (Alzheimer's Research & Therapy, 2022).
Non-standard residues stand in square brackets, D forms with d. Residues, ends and D or L forms follow the SMILES beside them.

How the values were obtained:
[1] = DLS of D-peptides alone with heparin; type: physicochemical; conditions: 100 μM D-peptide, 2.5 µM heparin 16000, 24 hours
Experimental: After the ThS assay (end time point, 24 h), the samples were used for DLS measurements. Twenty microliters of the sample was placed in a quartz batch cuvette (ZEN2112) and the measurement was performed at 25 °C in a Zetasizer Nano S instrument (Malvern Instruments, Herrenberg, Germany). The sample was thermally equilibrated at 25 °C for 2 min. The mean value of the intensities of an individual sample was determined over 3 measurements with 15 runs each. Analysis and averaging of the collected data were performed with the Zetasizer software 7.11 (Malvern Instruments, Herrenberg, Germany) and the result is represented as a volume graph. Tau^RDΔK fibrils (Tau+heparin) formed in the absence of D-peptides was used as a positive control.
100 μM of D-peptides and 2.5 µM of heparin 16000 (H16K) were incubated together for 24 hours and measured by DLS.

Tau^RDΔK = target: T1, Tau^RDΔK (Homo sapiens, UniProt P10636, DEL597-597); experiment: Pelleting assay and western blot, Tau^RDΔK; type: biochemical; conditions: 10 μM Tau, 100 μM peptide, 24 h, 61,000 rpm 60 min, K9JA western blot
T1 construct: Tau^RDΔK Pro-aggregant repeat domain Tau mutant ΔK280; made in house
Experimental: (§1) After the ThS assay (end time point, 24 h), 70 μl of each sample (pooled together from 2 wells) was centrifuged in a Beckmann coulter (Optima Max Ultra Centrifuge, TLA 100.3 rotor) at 61,000 rpm for 60 min at 4 °C. After centrifugation, the supernatant was separated from the pellet. Then, the pellet was dissolved in BES buffer in an equal volume as the supernatant. For the following western blot, 12-μl samples were mixed with 3-μl SDS-sample buffer (5x), heated for 5 min at 95 °C, and loaded onto a 8–16% SDS tris-glycine-gel (BioRad, Feldkirchen, Germany). The proteins were transferred to a polyvinylidene fluoride (PVDF) membrane. After the transfer, the membrane was blocked in 5% non-fat dry milk. After washing the membrane three times for 10 min with TBST, the primary pan-Tau K9JA antibody (1:5000; Agilent, Waldbronn, Germany) was incubated for 1 h at RT with gentle agitation, followed by again 3-times washing with TBST. For detection on western blot, the secondary antibody (goat anti-rabbit HRP, Agilent, Waldbronn, Germany) was incubated in a 1:2000 dilution for 1 h at RT with shaking. […] The quantification of intensities was performed using ImageJ.

[2] = tested on: Tau^FLΔK, Tau^FL-A152T, Tau^FL-P301L; experiment: Pelleting assay and western blot, full-length Tau mutants; type: biochemical, human; conditions: 10 µM Tau mutant, 100 µM peptide, 24 hours, K9JA western blot
Experimental: as §1, with “TBST.” for “TBST. For detection on western blot, the secondary antibody (goat anti-rabbit HRP, Agilent, Waldbronn, Germany) was incubated in a 1:2000 dilution for 1 h at RT with shaking.”
S-Figure 4-6: ISAD1 induces the formation of non-fibrillar large aggregates of Tau mutants. […] (C) The intensity of protein amount in supernatant and pellet was quantified by ImageJ for different Tau mutants such as Tau^FLΔK (Sup. Fig. 2C), Tau^FL-^A152T (Sup. Fig. 3C) or Tau^FL^-P^301L (Sup. Fig. 4C).

N2a-Tau^RDΔK cells [3] = experiment: LDH release with the peptides alone; type: cell-based; conditions: 25, 50, 100, 250 μM peptide, 24 h, n = 3
Experimental: (§2) N2a cells expressing Tau^RDΔK were plated on poly D-lysine-coated 96-well plates with a density of 25,000 cells/well. At 70 to 80% confluence, the cells were treated for 24 h with various concentrations of D-peptides (25, 50, 100, and 250 μM) or Tau^RDΔK (10 μM final concentration) in the presence of ISAD1 and ISAD1rev (100 μM final concentration). The ability of D-peptides to neutralize the toxicity of Tau^RDΔK oligomers/fibrils was investigated by measuring the amount of released LDH (Roche Diagnostics, Mannheim, Germany). Therefore, 50 μL of each well was transferred to a fresh 96-well plate and 50 μL of reagent was added followed by a 30-min incubation period at RT. Finally, 50 μL of stop solution (1 N HCl) was added and absorbance was recorded at 492 nm (TECAN spectrofluorometer, Männedorf, Switzerland). Absorbance values were corrected by background values and the percentage of LDH release was calculated.

N2a-Tau^RDΔK cells [4] = experiment: LDH release, externally added Tau^RDΔK aggregates; type: cell-based; conditions: 10 μM Tau, 100 μM peptide final, pre-incubated, 24 h on cells, n = 3
Experimental: as §2

T1 sequence (P10636 with tags, fused parts or gaps DEL597-597): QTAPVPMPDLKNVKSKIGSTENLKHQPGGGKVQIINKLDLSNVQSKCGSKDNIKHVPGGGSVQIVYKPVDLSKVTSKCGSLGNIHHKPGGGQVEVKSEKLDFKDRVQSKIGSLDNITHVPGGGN

CC(C)C[C@@H](NC(=O)[C@@H](CO)NC(=O)[C@@H](CC(C)C)NC(=O)[C@H](NC(=O)[C@@H](CC(=O)O)NC(=O)[C@@H](C)NC(=O)[C@@H](C)NC(=O)[C@H](N)CO)[C@H](C)O)C(=O)N[C@H](CCCCN)C(=O)N[C@H](Cc1ccccc1)C(=O)N[C@@H](C(=O)N[C@H](CO)C(=O)O)C(C)C [ISAD1rev] (H-[dS][dA][dA][dD][dT][dL][dS][dL][dK][dF][dV][dS]-OH; N-terminus and C-terminus assumed)
Particle size of peptide alone in the presence of heparin (DLS) [1]: < 2 nm | Distribution of Tau^RDΔK between pellet and supernatant (Tau^RDΔK): only apparent in the pellet | Distribution of full-length Tau mutants between pellet and supernatant [2]: more fractions in the supernatant | Cytotoxicity, LDH release (N2a-Tau^RDΔK cells [3]): do not induce toxic effects | Effect on toxicity of Tau aggregates, LDH release (N2a-Tau^RDΔK cells [4]): Low LDH release levels
